Patent US20240140947A1, “COMPOUND FOR THE TREATMENT OF CANCER” (priority 2022, published 2024)
Read-outs that look alike come from different tables or passages of the source.

Tests used:
[1] = test system: phosphorylation of Rb protein at serines 807/811 in MCF7 cells; assay: Phospho-Serine 807/811 Rb ELISA in MCF7 cells; type: cell-based; settings: Homo sapiens, read-out: IC50 ± SEM, modulation of pRB Serine 807/811
Experimental: Cellular CDK activity of Compound 1 and PF-06873600 were assessed in human CCNE1-amplified ovarian cancer cell line model OVCAR3 and human ER+ breast cancer cell line model MCF7 cells. […] OVCAR3 cells were treated overnight with 1 mM hydroxyurea to enrich for G1/S phase cells prior to treatment with inhibitors. Functional effects were measured in a 7-day anti-proliferation assay in one human ovarian cancer (OVCAR3), two human ER+ breast cancer (MCF7 and T47D) and three human non-small cell lung cancer (NCIH2087, NCIH358 and A549) cell line models.
OVCAR3 or MCF7 cells were seeded at 25,000 cells/well in 100 μL growth media and allowed to adhere at 37° C. with 5% CO2 overnight. OVCAR3 cells were treated overnight with 1 mM hydroxyurea to enrich for G1/S phase cells prior to treatment with inhibitors. The following day, compounds were serially diluted from a 10 mM top dose for an 11-point 3-fold dilution curve in DMSO. Compound 1 and PF-06873600 were intermediately diluted 1:200 into growth media prior to diluting 1:5 on cells for final concentration 10 μM to 0.1 nM in 0.1% DMSO on cells. […] Plates were read in luminescence mode and IC50 values calculated.
The cellular activity of Compound 1 was evaluated in ER+, HER2− MCF7 cells and CCNE1-amplified ovarian carcinoma. Activity was determined by inhibition of phosphorylation of […]

Observed human half-life = type: in vivo
CDK2/Cyclin E1 = target: T1, CDK2/Cyclin E1 (Homo sapiens, UniProt P24941); assay: CDK2/Cyclin E1 mobility shift assay; type: biochemical; settings: geometric mean, 150 μM ATP
T1 construct: Wild-type full length CDK2/wild-type full length Cyclin E1 enzyme complex was produced in-house
Experimental: (CPC Scientific, Sunnyvale, CA). The mobility shift assay electrophoretically separates the fluorescently labeled peptides (substrate and phosphorylated product) following the kinase reaction. Both substrate and product are measured, and the ratio of these values is used to generate % conversion of substrate to product by the LabChip EZ Reader. […] The assay was initiated with the addition of ATP, following a fifteen minutes pre-incubation of enzyme and inhibitor at room temperature in the reaction mixture. The reaction was stopped after 45 minutes at room temperature by the addition of 50 μL of 80 mM EDTA, pH 7.5. The Ki value was determined from the fit of the data to the Morrison tight-binding competitive inhibition equation with the enzyme concentration as a variable.

CDK4/Cyclin D1 = target: T2, CDK4/Cyclin D1 (Homo sapiens, UniProt P11802); assay: CDK4/Cyclin D1 mobility shift assay; type: biochemical; settings: geometric mean, 3.5 mM ATP
T2 construct: 2007 E1/2008+PO4
T2 sequence (P11802 whole entry): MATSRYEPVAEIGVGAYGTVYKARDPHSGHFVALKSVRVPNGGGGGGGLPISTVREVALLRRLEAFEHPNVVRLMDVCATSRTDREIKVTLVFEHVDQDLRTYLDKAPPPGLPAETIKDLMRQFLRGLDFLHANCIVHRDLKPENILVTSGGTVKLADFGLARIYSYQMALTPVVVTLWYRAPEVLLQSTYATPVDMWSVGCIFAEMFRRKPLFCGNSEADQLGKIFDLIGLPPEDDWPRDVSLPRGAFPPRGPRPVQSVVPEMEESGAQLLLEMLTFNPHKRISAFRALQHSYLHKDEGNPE
T2 sequence (P24385 whole entry partner): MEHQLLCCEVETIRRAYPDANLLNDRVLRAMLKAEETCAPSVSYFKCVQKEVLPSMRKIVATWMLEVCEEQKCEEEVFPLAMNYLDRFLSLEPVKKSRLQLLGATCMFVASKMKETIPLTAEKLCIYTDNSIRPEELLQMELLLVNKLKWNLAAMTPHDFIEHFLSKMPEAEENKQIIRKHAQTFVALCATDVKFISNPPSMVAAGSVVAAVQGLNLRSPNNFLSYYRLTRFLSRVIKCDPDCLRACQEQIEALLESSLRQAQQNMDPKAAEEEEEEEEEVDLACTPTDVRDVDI
Experimental: (§1) The mobility shift assay electrophoretically separates the fluorescently labeled peptides (substrate and phosphorylated product) following the kinase reaction. Both substrate and product are measured and the ratio of these values is used to generate % Conversion of substrate to product by the LabChip EZ Reader.
K, determinations were made from a plot of the fractional velocity as a function of inhibitor concentration fit to the Morrison equation with the enzyme concentration as a variable.

CDK6/Cyclin D3 = target: T3, CDK6/Cyclin D3 (Homo sapiens, UniProt Q00534); assay: CDK6/Cyclin D3 mobility shift assay; type: biochemical; settings: geometric mean, 3.5 mM ATP
T3 construct: LJIC-2009G1/2010+PO4
T3 sequence (Q00534 whole entry): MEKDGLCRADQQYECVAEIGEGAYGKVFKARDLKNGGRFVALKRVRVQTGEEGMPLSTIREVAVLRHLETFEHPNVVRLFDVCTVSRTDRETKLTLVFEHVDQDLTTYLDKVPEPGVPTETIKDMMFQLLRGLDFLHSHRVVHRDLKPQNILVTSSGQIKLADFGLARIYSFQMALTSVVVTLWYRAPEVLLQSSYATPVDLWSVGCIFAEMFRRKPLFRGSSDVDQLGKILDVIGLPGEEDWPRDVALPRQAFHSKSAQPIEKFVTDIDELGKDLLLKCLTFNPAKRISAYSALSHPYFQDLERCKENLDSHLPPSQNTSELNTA
T3 sequence (P30281 whole entry partner): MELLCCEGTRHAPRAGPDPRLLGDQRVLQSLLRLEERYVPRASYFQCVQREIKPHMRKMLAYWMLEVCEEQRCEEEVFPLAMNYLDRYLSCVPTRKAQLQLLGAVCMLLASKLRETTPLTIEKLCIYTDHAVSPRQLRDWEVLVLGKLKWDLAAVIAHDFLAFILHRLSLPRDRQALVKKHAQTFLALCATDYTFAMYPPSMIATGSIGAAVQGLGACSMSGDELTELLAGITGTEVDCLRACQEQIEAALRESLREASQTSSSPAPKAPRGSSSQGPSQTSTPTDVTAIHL
Experimental: as §1, with “measured,” for “measured”, “conversion” for “Conversion”
The reaction was stopped after 95 minutes by the addition of 50 μL of 30 mM EDTA. Ki determinations were made from a plot of the fractional velocity as a function of inhibitor concentration fit to the Morrison equation with the enzyme concentration as a variable.
For CDK4 and CDK6 mobility shift assays, see also Morrison, J. F. (1969) Kinetics of the reversible inhibition of enzyme-catalysed reactions by tight-binding inhibitors, Biochimica et biophysica acta 185, 269-286; and Murphy, D. J. (2004) Determination of accurate KI values for tight-binding enzyme inhibitors: an in silico study of experimental error and assay design, Analytical biochemistry 327, 61-67.

[2] = Rat i.v. pharmacokinetic study; type: in vivo
Experimental: Rat PK studies were done at Pfizer (Groton, CT) or BioDuro Pharmaceutical Product Development Inc. (Shanghai, PRC); Jugular vein-cannulated male Wistar-Hannover rats were purchased from Charles River Laboratories, Inc. (Wilmington, MA) or Vital River (Beijing, China) and were typically 7-10 weeks of age at the time of dosing. During the pharmacokinetic studies all animals were housed individually. Access to food and water was provided ad libitum. Compounds were administered i.v. via the tail vein (n=2 or 3), dosed as a 1 mg/ml solution using standard compatible excipients at 1 mL/kg for a resulting dose of […]. Serial blood samples were collected via the jugular vein cannula at predetermined timepoints after dosing. Animals were monitored for pain or distress throughout the study, with at least daily monitoring during normal husbandry prior to study start. At the completion of the study, animals were euthanized by overdose of inhaled anesthesia followed by exsanguination. […] Plasma samples from the animal PK studies were processed using protein precipitation with acetonitrile: methanol (1:1) containing internal standard verapamil followed by quantitation by LC-MS/MS against a standard curve prepared in blank plasma. Pharmacokinetic parameters were calculated using noncompartmental analysis (Watson v.7.5, Thermo Scientific).

Structure (SMILES) | IC50 ([1]; MCF7, 24 h) [nM] | observed human t1/2 (Observed human half-life) [h] | half-life (Observed human half-life; in vivo, read-out: observed human t1/2 (converted)) [h] | Ki (CDK2/Cyclin E1) [nM] | Ki (CDK4/Cyclin D1) [nM] | Ki (CDK6/Cyclin D3) [nM] | IC50 ([1]; MCF7, mean, treated 24 h (overnight)) [nM] | Rat Vdss unbound: (Rat plasma Vdss/rat plasma fu) [2] [L/kg] | Vd ([2]; rat, plasma, iv, 2 mg/kg, male Wistar-Hannover rats, read-out: Rat Vdss) [L/kg]
C[C@@]1(O)CCC[C@H]1n1c(=O)c(C(F)F)cc2cnc(NC3CCN(S(C)(=O)=O)CC3)nc21 [Compound 2, reference compound] | 70.6 | ~3 | 3 |  |  |  |  |  | 
C[C@@]1(O)CCC[C@H]1n1c(=O)c(CC(F)F)cc2cnc(NC3CCN(S(N)(=O)=O)CC3)nc21 [Compound 1, 4-({6-(2,2-difluoroethyl)-8-[(1R,2R)-2-hydroxy-2-methylcyclopentyl]-7-oxo-7,8-dihydropyrido[2,3-d]pyrimidin-2-yl}amino)piperidine-1-sulfonamide] |  |  |  | 0.08 | 0.79 | 3.1 | 148 | 10.8 | 1.5
